Results on four compounds are retold here after patent US20230324368A1, “Systems, Devices And Methods For Cell Analysis Using ChemFET Sensor Arrays” (Life Technologies Corporation, priority 2020, published 2023).

The test system of data set [1] is HEPG2 cells. The data set can be described thus: Label-free metabolic profiling (glucose restriction / glucose reintroduction) on ChemFET sensor array, HEPG2 cells. The class given is cell-based, human. From the text: FIG. 18A through FIG. 18B are graphs of data collected during metabolic profiling studies using HEPG2 cells (ATCC-HB-8065), while FIG. 19A and FIG. 19B are graphs of data collected during metabolic profiling studies using A673 cells (ECACC 85111504). FIG. 18A through FIG. 18B are temporal response graphs of counts equivalent to protons (CEP) in microvolts (μV) versus time. As will be described in more detail herein, the pharmacological dissection of metabolic profiling can be performed to understand the contribution of oxidative metabolism and glycolytic metabolism to metabolic profiling. Accordingly, chemical agents, such as oligomycin, antimycin A, rotenone and metformin can used to understand a contribution of oxidative metabolism to cellular response in a metabolic profiling study, while chemical agents, such as 2-deoxy-D-glucose, koningic acid, fasentin, and AM2394 can used to understand a contribution of glycolytic metabolism to cellular response in a metabolic profiling study.
The chip devices used in the studies were ISFET chip devices selective for sensing hydrogen ions, and were chip devices such as chip device 1 of 1 of Table 1. Given that the analyses performed were for metabolic profiling, chip devices with microwells were selected as depicted for chip device 500B of FIG. 5C. […]
(§1) Prior to seeding the devices with cells, each chip device in open format, such as open format chip device 500 of FIG. 2, and were soaked for 30 minutes with 70% ethanol in water, then rinsed with PBS and then rinsed twice with 1.5 mL of a cell culture medium, for example, Dulbecco's Modified […] Medium (DMEM; Gibco™ catalog #11995-065), Minimal Essential Medium (MEM; Gibco™ catalog #11095-080) or McCoy's 5A modified medium (Gibco™ catalog #12330-031). […] After rinsing with the cell culture medium, the devices were ready for addition to each device of a suspension of cells at a density between 5,000 to 30,000 cells in 1 to 1.5 mL of a cell culture medium, pH 7.4. […]

Data set [2] has as its system A673 cells. The experiment in a line: Label-free metabolic profiling (glucose restriction / glucose reintroduction) on ChemFET sensor array, A673 cells. It counts as cell-based. Particulars: 5 μM koningic acid pretreatment during glucose restriction; 5 mM glucose reintroduction; FIG. 19A/19B.
Source text: FIG. 18A through FIG. 18B are graphs of data collected during metabolic profiling studies using HEPG2 cells (ATCC-HB-8065), while FIG. 19A and FIG. 19B are graphs of data collected during metabolic profiling studies using A673 cells (ECACC 85111504). FIG. 18A through FIG. 18B are temporal response graphs of counts equivalent to protons (CEP) in microvolts (μV) versus time. As will be described in more detail herein, the pharmacological dissection of metabolic profiling can be performed to understand the contribution of oxidative metabolism and glycolytic metabolism to metabolic profiling. […]
as §1

Data set [3] has as its system HEPG2 cells. The experiment in a line: Control microscopy with calcein acetoxymethyl (AM) ester live-cell indicator, HEPG2 cells. The class given is cell-based, human. To be noted: 5 μM koningic acid treated cells, after experiment of FIG. 18B. On the procedure:
(§2) After completion of each experiment represented by FIG. 18A and FIG. 18B for the HEPG2 cells, and by FIG. 19A and FIG. 19B for the A673 cells, control microscopy studies using calcein acetoxymethyl (AM) ester, a known fluorescent indicator of live cells, were performed. […] These control microscopy studies confirmed that what was observed using the ChemFET-based cell analysis system to perform the studies represented by FIG. 18A through FIG. 19B for both HEPG2 and A673 cells were observed using live cells.

For data set [4], the system named is A673 cells. The experiment in a line: Control microscopy with calcein acetoxymethyl (AM) ester live-cell indicator, A673 cells. Particulars: 5 μM koningic acid treated cells, after experiment of FIG. 19B. The class given is cell-based. On the procedure:
as §2

Data set [5] has as its system HEPG2 cells. Particulars: FCCP 100 μM; ISFET chip device 2 with microwells; not all cells showed efflux.
Protocol: A sensor array device of the present disclosure, such as sensor array device 500 of FIG. 2, has an open structure, thereby allowing the HEPG2 cells to be cultured on the sensor surface in ^˜1 mL of cell culture media. The device was sterilized with 70% Ethanol in water, rinsed and prepared with 100 μg/mL poly-D-lysine in phosphate buffered saline prior to adding cells to facilitate cell adhesion to a chip device surface as depicted in FIG. 5B.
For plating on the sensor array device, the HEPG2 cells were harvested from culture, resuspended at 2.5×10^5 cells per mL in complete cell culture medium (composed of Minimum Essential Medium, MEM, Thermo Fisher Scientific catalog number 11095080) plus 10% Fetal Calf Serum (FCS, Thermo Fisher Scientific Catalog number A3160401) and plated onto the sensor array device for overnight incubation in a cell culture incubator under standard conditions at 37° C. with 95% humidity and 5% carbon dioxide in room air atmosphere. […] Cells were then allowed to adhere to the prepared surface of the sensor array device and grow overnight or longer before microscopic analysis of morphology and qualitative assessment of viability. […]

Molecules are shown by their SMILES.

`CC(C)[C@H]1CC[C@@]2(CO2)[C@H]2C(=O)OCC(C(=O)O)=C[C@H]12` [koningic acid]: in the data set with HEPG2 cells [1] (5 μM koningic acid pretreatment during glucose restriction, two to three hours, then glucose, oligomycin, 2-deoxy-D-glucose, FIG. 18B), the “averaged temporal response, counts equivalent to protons (CEP) versus time” value (shortened to “averaged temporal response … (CEP) versus time”) is reported as “no change in the averaged signal”. The “averaged temporal response (CEP) to glucose reintroduction with and without koningic acid” value in the data set on A673 cells [2] is given as “comparable to the results using HEPG2 cells”. The “acute toxicity, calcein staining profile versus control vehicle treated cultures” value in the data set with HEPG2 cells [3] and in the data set with A673 cells [4] was “no acute toxicity” in each case.

Take `N#CC(C#N)=NNc1ccc(OC(F)(F)F)cc1` [FCCP, carbonyl cyanide-4-(trifluoromethoxy) phenylhydrazone]: in the data set with HEPG2 cells [5], the “cellular response observed in electroscopic image” value was “efflux of cellular contents”.

`O=CC[C@@H](O)[C@H](O)[C@H](O)CO` [2-deoxy-D-glucose]: the “averaged temporal response … (CEP) versus time” value in the data set on HEPG2 cells [1] (50 mM 2-deoxy-D-glucose introduced at 371 seconds after oligomycin, control without koningic acid, FIG. 18A) is recorded as “attenuated”.

Regarding `CC[C@H]1/C=C/C=C/C[C@@H](C)[C@H](O)[C@@](C)(O)C(=O)[C@@H](C)[C@H](O)[C@@H](C)C(=O)[C@@H](C)[C@H](O)[C@@H](C)/C=C/C(=O)O[C@@H]2[C@H](C)[C@H](CC1)O[C@]1(CC[C@H](C)[C@H](C[C@@H](C)O)O1)[C@H]2C` [oligomycin], the “averaged temporal response … (CEP) versus time” value in the data set on HEPG2 cells [1] (1 μM oligomycin introduced at 295 seconds after glucose, control without koningic acid, FIG. 18A) was “potentiated”.
